For 1 molecule, IC50 results are on record in patent US11844801B2, “Oral compositions of MK2 pathway inhibitor for treatment of immune conditions” (priority 2020, dated 2023).

For this assay, the system named is TNF-α. The experiment in a line: Differentiated U937 cell LPS stimulated cytokine assay (TNF-α). Format: cell-based. As to conditions: Homo sapiens, U-937, U937 cells, 100 ng/mL, 4 hr. On the procedure:
U937 Cell differentiation and LPS stimulated cytokine assay: The U937 human pre-monocytic cell line (ATCC, CRL-1593.2) was grown in complete media: RPMI 1640 (Gibco, A10491) with penicillin-streptomycin (10 U/mL)-glutamine (2 mM) (Gibco, 10378016) and 10% FBS(Gibco, 26140-079). Cells were differentiated to a monocyte/macrophage phenotype with the addition of PMA (Sigma-Aldrich, P1585) (20 ng/mL, 24 hours), washed with DPBS (Gibco, 14190-136) and incubated in complete media for 24 hours at 37° C., 5% CO2. Following recovery, the cells were scraped, counted, re-plated in complete media in accordance with the experimental design and incubated for an additional 24 hours at 37° C., 5% CO2 prior to stimulation with LPS (Sigma-Aldrich, L2630) as described below. Differentiated U937 cells were pretreated for one hour in the presence of serially diluted compound or vehicle then stimulated with LPS at a final concentration of 100 ng/mL for four hours. Culture media was then collected for determination of cytokine levels using Meso Scale Technology.

Molecules are shown by their SMILES.

On to `Cc1cnc(-c2ccnc(C(C)(C)O)n2)cc1-n1c(C)cc(OCc2ncc(F)cc2F)c(Cl)c1=O` (single isomer, unassigned) [ATI-450, 3-chloro-4-((3,5-difluoropyridin-2-yl)methoxy)-2′-(2-(2-hydroxypropan-2-yl)pyrimidin-4-yl)-5′,6-dimethyl-2H-[1,4′-bipyridin]-2-one], for which it took 1.55 ± 0.35 nM to reach half-maximal inhibition (IC50).
